Test results published in PubChem BioAssay (NCI).
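GI50 marks 50% less growth. At the TGI there is no net growth.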

Assays:
Assay in all cases: growth of human tumour cells (NCI), 384-well format
U251 glioblastoma = test system: U251 glioblastoma
OVCAR-4 ovarian = test system: OVCAR-4 ovarian
EKVX NSCLC = test system: EKVX NSCLC
UACC-62 melanoma = test system: UACC-62 melanoma
HS 578T breast = test system: HS 578T breast
SK-MEL-5 melanoma = test system: SK-MEL-5 melanoma
SF-268 CNS = test system: SF-268 CNS
MDA-MB-231 breast = test system: MDA-MB-231 breast
LOX IMVI melanoma = test system: LOX IMVI melanoma
DU-145 prostate = test system: DU-145 prostate
COLO 205 colon = test system: COLO 205 colon
IGROV1 ovarian = test system: IGROV1 ovarian
M14 melanoma = test system: M14 melanoma
HOP-92 NSCLC = test system: HOP-92 NSCLC
BT-549 breast = test system: BT-549 breast
RXF 393 renal = test system: RXF 393 renal
HOP-62 NSCLC = test system: HOP-62 NSCLC
HCT-116 colon = test system: HCT-116 colon
OVCAR-5 ovarian = test system: OVCAR-5 ovarian
MCF7 breast = test system: MCF7 breast
A498 renal = test system: A498 renal
CCRF-CEM leukemia = test system: CCRF-CEM leukemia
NCI-H226 lung = test system: NCI-H226 lung
A549 NSCLC = test system: A549 NSCLC
NCI/ADR-RES ovarian = test system: NCI/ADR-RES ovarian
PC-3 prostate = test system: PC-3 prostate
K-562 leukemia = test system: K-562 leukemia
NCI-H522 lung = test system: NCI-H522 lung
MALME-3M melanoma = test system: MALME-3M melanoma
HT29 colon = test system: HT29 colon
HCT-15 colon = test system: HCT-15 colon
T-47D breast = test system: T-47D breast
SR leukemia = test system: SR leukemia
SNB-75 CNS = test system: SNB-75 CNS
MDA-MB-468 breast = test system: MDA-MB-468 breast
MDA-MB-435 melanoma = test system: MDA-MB-435 melanoma
TK-10 renal = test system: TK-10 renal
SF-539 CNS = test system: SF-539 CNS
SK-MEL-2 melanoma = test system: SK-MEL-2 melanoma
OVCAR-3 ovarian = test system: OVCAR-3 ovarian
SN12C renal = test system: SN12C renal
786-0 renal = test system: 786-0 renal
KM12 colon = test system: KM12 colon
NCI-H460 NSCLC = test system: NCI-H460 NSCLC
NCI-H23 lung = test system: NCI-H23 lung
SNB-19 CNS = test system: SNB-19 CNS
UACC-257 melanoma = test system: UACC-257 melanoma

Cc1[nH]c2ccccc2c1CCNCc1ccc(/C=C/C(=O)NO)cc1
GI50 (U251 glioblastoma): 12.2 nM | TGI (U251 glioblastoma): 26.8 nM | GI50 (OVCAR-4 ovarian): 27.5 nM | TGI (OVCAR-4 ovarian): 60.9 nM | GI50 (EKVX NSCLC): 42.7 nM | TGI (EKVX NSCLC): 398 nM | GI50 (UACC-62 melanoma): < 10 nM | TGI (UACC-62 melanoma): 16.1 nM | GI50 (HS 578T breast): 11.5 nM | TGI (HS 578T breast): 24.3 nM | GI50 (SK-MEL-5 melanoma): < 10 nM | TGI (SK-MEL-5 melanoma): 14 nM | GI50 (SF-268 CNS): 15.2 nM | TGI (SF-268 CNS): 39.1 nM | GI50 (MDA-MB-231 breast): 12.1 nM | TGI (MDA-MB-231 breast): 30.5 nM | GI50 (LOX IMVI melanoma): 13.1 nM | TGI (LOX IMVI melanoma): 26.2 nM | GI50 (DU-145 prostate): < 10 nM | TGI (DU-145 prostate): 17.9 nM | GI50 (COLO 205 colon): 12.3 nM | TGI (COLO 205 colon): 22.7 nM | GI50 (IGROV1 ovarian): 10.8 nM | TGI (IGROV1 ovarian): 26.4 nM | GI50 (M14 melanoma): 14.7 nM | TGI (M14 melanoma): 82.2 nM | GI50 (HOP-92 NSCLC): 13.3 nM | TGI (HOP-92 NSCLC): 32.5 nM | GI50 (BT-549 breast): 43.4 nM | TGI (BT-549 breast): 123 nM | GI50 (RXF 393 renal): < 11.7 nM | TGI (RXF 393 renal): 18.6 nM | GI50 (HOP-62 NSCLC): 13.1 nM | TGI (HOP-62 NSCLC): 64.4 nM | GI50 (HCT-116 colon): < 10 nM | TGI (HCT-116 colon): 17.9 nM | GI50 (OVCAR-5 ovarian): 10.1 nM | TGI (OVCAR-5 ovarian): 33.7 nM | GI50 (MCF7 breast): < 11 nM | TGI (MCF7 breast): 25.9 nM | GI50 (A498 renal): 16.6 nM | TGI (A498 renal): 36 nM | GI50 (CCRF-CEM leukemia): < 10 nM | TGI (CCRF-CEM leukemia): < 10 nM | GI50 (NCI-H226 lung): 35.9 nM | TGI (NCI-H226 lung): 133 nM | GI50 (A549 NSCLC): 15.6 nM | TGI (A549 NSCLC): 42.2 nM | GI50 (NCI/ADR-RES ovarian): 39 nM | TGI (NCI/ADR-RES ovarian): 181 nM | GI50 (PC-3 prostate): 14.2 nM | TGI (PC-3 prostate): 39.9 nM | GI50 (K-562 leukemia): < 10 nM | TGI (K-562 leukemia): 14.8 nM | GI50 (NCI-H522 lung): < 10 nM | TGI (NCI-H522 lung): 18.5 nM | GI50 (MALME-3M melanoma): < 10 nM | TGI (MALME-3M melanoma): 16.3 nM | GI50 (HT29 colon): 12.5 nM | TGI (HT29 colon): 28.5 nM | GI50 (HCT-15 colon): 51.5 nM | TGI (HCT-15 colon): 257 nM | GI50 (T-47D breast): < 10.9 nM | TGI (T-47D breast): 21.4 nM | GI50 (SR leukemia): < 10 nM | TGI (SR leukemia): < 10 nM | GI50 (SNB-75 CNS): < 12.4 nM | TGI (SNB-75 CNS): 45.9 nM | GI50 (MDA-MB-468 breast): < 10 nM | TGI (MDA-MB-468 breast): 17.9 nM | GI50 (MDA-MB-435 melanoma): 18.1 nM | TGI (MDA-MB-435 melanoma): 43.4 nM | GI50 (TK-10 renal): 17.3 nM | TGI (TK-10 renal): 55.2 nM | GI50 (SF-539 CNS): 18.6 nM | TGI (SF-539 CNS): 86 nM | GI50 (SK-MEL-2 melanoma): < 10 nM | TGI (SK-MEL-2 melanoma): < 10 nM | GI50 (OVCAR-3 ovarian): 16.7 nM | TGI (OVCAR-3 ovarian): 43.7 nM | GI50 (SN12C renal): 18.6 nM | TGI (SN12C renal): 41.1 nM | GI50 ([…]-0 renal): 21.4 nM | TGI (786-0 renal): 114 nM | GI50 (KM12 colon): 23.1 nM | TGI (KM12 colon): 94.8 nM | GI50 (NCI-H460 NSCLC): 12.5 nM | TGI (NCI-H460 NSCLC): 51.1 nM | GI50 (NCI-H23 lung): 13.9 nM | TGI (NCI-H23 lung): 41.1 nM | GI50 (SNB-19 CNS): 23.4 nM | TGI (SNB-19 CNS): 65.3 nM | GI50 (UACC-257 melanoma): < 10.7 nM | TGI (UACC-257 melanoma): 24.4 nM

COCCNc1cc(NC(=O)N2CCCc3cc(CN4CCN(C)CC4=O)c(C=O)nc32)ncc1C#N
GI50 (U251 glioblastoma): > 100000 nM | TGI (U251 glioblastoma): > 100000 nM | GI50 (OVCAR-4 ovarian): > 100000 nM | TGI (OVCAR-4 ovarian): > 100000 nM | GI50 (EKVX NSCLC): > 100000 nM | TGI (EKVX NSCLC): > 100000 nM | GI50 (UACC-62 melanoma): > 100000 nM | TGI (UACC-62 melanoma): > 100000 nM | GI50 (HS 578T breast): > 100000 nM | TGI (HS 578T breast): > 100000 nM | GI50 (SK-MEL-5 melanoma): > 100000 nM | TGI (SK-MEL-5 melanoma): > 100000 nM | GI50 (SF-268 CNS): > 100000 nM | TGI (SF-268 CNS): > 100000 nM | GI50 (MDA-MB-231 breast): > 100000 nM | TGI (MDA-MB-231 breast): > 100000 nM | GI50 (LOX IMVI melanoma): > 100000 nM | TGI (LOX IMVI melanoma): > 100000 nM | GI50 (DU-145 prostate): > 100000 nM | TGI (DU-145 prostate): > 100000 nM | GI50 (COLO 205 colon): > 100000 nM | TGI (COLO 205 colon): > 100000 nM | GI50 (IGROV1 ovarian): > 100000 nM | TGI (IGROV1 ovarian): > 100000 nM | GI50 (M14 melanoma): > 100000 nM | TGI (M14 melanoma): > 100000 nM | TGI (HOP-92 NSCLC): > 100000 nM | GI50 (BT-549 breast): > 100000 nM | TGI (BT-549 breast): > 100000 nM | GI50 (RXF 393 renal): > 100000 nM | TGI (RXF 393 renal): > 100000 nM | GI50 (HOP-62 NSCLC): > 100000 nM | TGI (HOP-62 NSCLC): > 100000 nM | GI50 (HCT-116 colon): > 100000 nM | TGI (HCT-116 colon): > 100000 nM | GI50 (OVCAR-5 ovarian): > 100000 nM | TGI (OVCAR-5 ovarian): > 100000 nM | GI50 (MCF7 breast): > 100000 nM | TGI (MCF7 breast): > 100000 nM | GI50 (A498 renal): > 100000 nM | TGI (A498 renal): > 100000 nM | GI50 (CCRF-CEM leukemia): 27000 nM | TGI (CCRF-CEM leukemia): > 100000 nM | GI50 (NCI-H226 lung): > 100000 nM | TGI (NCI-H226 lung): > 100000 nM | GI50 (A549 NSCLC): > 100000 nM | TGI (A549 NSCLC): > 100000 nM | GI50 (NCI/ADR-RES ovarian): > 100000 nM | TGI (NCI/ADR-RES ovarian): > 100000 nM | GI50 (PC-3 prostate): > 100000 nM | TGI (PC-3 prostate): > 100000 nM | GI50 (K-562 leukemia): 22200 nM | TGI (K-562 leukemia): > 100000 nM | GI50 (NCI-H522 lung): > 42200 nM | TGI (NCI-H522 lung): > 100000 nM | GI50 (MALME-3M melanoma): > 100000 nM | TGI (MALME-3M melanoma): > 100000 nM | GI50 (HT29 colon): > 100000 nM | TGI (HT29 colon): > 100000 nM | GI50 (HCT-15 colon): > 100000 nM | TGI (HCT-15 colon): > 100000 nM | GI50 (T-47D breast): > 77700 nM | TGI (T-47D breast): > 100000 nM | GI50 (SR leukemia): 3310 nM | TGI (SR leukemia): 10800 nM | GI50 (SNB-75 CNS): > 100000 nM | TGI (SNB-75 CNS): > 100000 nM | GI50 (MDA-MB-468 breast): 4830 nM | TGI (MDA-MB-468 breast): > 100000 nM | GI50 (MDA-MB-435 melanoma): > 100000 nM | TGI (MDA-MB-435 melanoma): > 100000 nM | GI50 (TK-10 renal): > 84900 nM | TGI (TK-10 renal): > 100000 nM | GI50 (SF-539 CNS): > 100000 nM | TGI (SF-539 CNS): > 100000 nM | GI50 (SK-MEL-2 melanoma): > 100000 nM | TGI (SK-MEL-2 melanoma): > 100000 nM | GI50 (OVCAR-3 ovarian): > 69300 nM | TGI (OVCAR-3 ovarian): > 100000 nM | GI50 (SN12C renal): > 100000 nM | TGI (SN12C renal): > 100000 nM | GI50 ([…]-0 renal): > 100000 nM | TGI (786-0 renal): > 100000 nM | GI50 (KM12 colon): > 100000 nM | TGI (KM12 colon): > 100000 nM | GI50 (NCI-H460 NSCLC): > 100000 nM | TGI (NCI-H460 NSCLC): > 100000 nM | GI50 (NCI-H23 lung): > 100000 nM | TGI (NCI-H23 lung): > 100000 nM | GI50 (SNB-19 CNS): > 100000 nM | TGI (SNB-19 CNS): > 100000 nM | GI50 (UACC-257 melanoma): > 100000 nM | TGI (UACC-257 melanoma): > 100000 nM
